According to ChEMBL document CHEMBL5244248, “A novel long-acting oxyntomodulin analogue eliminates diabetes and obesity in mice” (Eur J Med Chem, 2020):
Numbered stars: 1 amine (or outer) side, 2 acyl side, 3 side chain; on linkers, the order of the positions; unused ones are H or OH. Square brackets hold non-standard residues; d marks the D form. Peptide text beside a SMILES is read from it. X1 = CC(C)(CN([C@@H](CCC(N)=O)C(=O)[*:2])[*:1])NC(=O)[C@@H](N)Cc1c[nH]cn1; Aib = CC(C)(N)C(=O)O

Assays:
[1] = system: INS1; assay: Anti-apoptotic activity in rat INS1 cells assessed as reduction in cytokine-induced cell apoptosis at 100 nM treated for 1 hr prior to TNF-alpha and IL-1beta challenge; format: functional
[2] = target: Glucagon receptor (Mus musculus, UniProt Q61606); assay: Agonist activity at mouse GCGR expressed in CHO cells assessed as increase in cAMP accumulation; format: cell-based
[3] = target: T1, Glucagon-like peptide 1 receptor (Mus musculus, UniProt O35659); assay: Agonist activity at mouse GLP-1R expressed in CHO cells assessed as increase in cAMP accumulation; format: cell-based
T1 sequence (O35659 whole entry): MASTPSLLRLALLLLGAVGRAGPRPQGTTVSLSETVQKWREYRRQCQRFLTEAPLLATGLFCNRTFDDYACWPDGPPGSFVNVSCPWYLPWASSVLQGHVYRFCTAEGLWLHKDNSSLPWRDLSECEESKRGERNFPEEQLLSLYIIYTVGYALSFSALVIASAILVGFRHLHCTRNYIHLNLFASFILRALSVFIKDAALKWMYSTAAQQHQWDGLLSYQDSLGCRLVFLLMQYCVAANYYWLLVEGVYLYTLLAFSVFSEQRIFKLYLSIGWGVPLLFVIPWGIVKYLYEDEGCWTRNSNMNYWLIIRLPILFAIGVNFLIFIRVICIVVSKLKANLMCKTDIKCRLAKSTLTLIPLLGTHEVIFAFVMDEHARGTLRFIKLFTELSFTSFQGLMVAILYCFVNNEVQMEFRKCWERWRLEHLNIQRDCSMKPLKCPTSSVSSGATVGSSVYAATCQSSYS

Glucagon receptor, sequence (Q61606 whole entry): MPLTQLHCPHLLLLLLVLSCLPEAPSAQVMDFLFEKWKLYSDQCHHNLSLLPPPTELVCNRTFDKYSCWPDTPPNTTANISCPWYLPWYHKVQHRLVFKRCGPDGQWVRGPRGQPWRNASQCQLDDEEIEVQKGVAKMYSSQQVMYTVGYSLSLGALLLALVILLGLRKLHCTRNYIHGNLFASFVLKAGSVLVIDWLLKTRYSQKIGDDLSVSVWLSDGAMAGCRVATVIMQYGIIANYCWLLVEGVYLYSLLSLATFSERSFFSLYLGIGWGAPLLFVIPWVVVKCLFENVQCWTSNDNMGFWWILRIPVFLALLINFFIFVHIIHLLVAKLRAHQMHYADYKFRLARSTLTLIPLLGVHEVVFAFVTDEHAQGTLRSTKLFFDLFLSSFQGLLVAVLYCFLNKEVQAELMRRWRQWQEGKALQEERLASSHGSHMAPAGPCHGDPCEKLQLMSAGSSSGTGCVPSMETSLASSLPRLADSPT

Structure (SMILES)	inhibition at 0.1 µM [1] [%]	EC50 [2] [nM]	EC50 [3] [nM]
CC[C@H](C)[C@H](NC(=O)[C@H](Cc1ccccc1)NC(=O)[C@H](CCC(=O)O)NC(=O)[C@H](CCCCN)NC(=O)[C@H](C)NC(=O)[C@H](C)NC(=O)[C@H](CCC(N)=O)NC(=O)CNC(=O)[C@H](CCC(=O)O)NC(=O)[C@H](CC(C)C)NC(=O)[C@H](Cc1ccc(O)cc1)NC(=O)[C@H](CO)NC(=O)[C@H](CO)NC(=O)[C@@H](NC(=O)[C@H](CC(=O)O)NC(=O)[C@H](CO)NC(=O)[C@@H](NC(=O)[C@H](Cc1ccccc1)NC(=O)[C@@H](NC(=O)CNC(=O)[C@H](CCC(=O)O)NC(=O)[C@H](C)NC(=O)[C@@H](N)Cc1cnc[nH]1)[C@@H](C)O)[C@@H](C)O)C(C)C)C(=O)N[C@@H](C)C(=O)N[C@@H](Cc1c[nH]c2ccccc12)C(=O)N[C@@H](CC(C)C)C(=O)N[C@H](C(=O)N[C@@H](CCCCN)C(=O)NCC(=O)N[C@@H](CCCNC(=N)N)C(=O)O)C(C)C	40.4		
CC[C@H](C)[C@H](NC(=O)[C@H](CC(N)=O)NC(=O)[C@H](CC(N)=O)NC(=O)[C@H](CCCNC(=N)N)NC(=O)[C@H](CC(N)=O)NC(=O)[C@H](CCCNC(=N)N)NC(=O)[C@H](CCCCN)NC(=O)[C@@H](NC(=O)[C@H](CC(N)=O)NC(=O)[C@H](CCSC)NC(=O)[C@H](CC(C)C)NC(=O)[C@H](Cc1c[nH]c2ccccc12)NC(=O)[C@H](CCC(N)=O)NC(=O)[C@@H](NC(=O)[C@H](Cc1ccccc1)NC(=O)[C@H](CC(=O)O)NC(=O)[C@H](CCC(N)=O)NC(=O)[C@H](C)NC(=O)[C@H](CCCNC(=N)N)NC(=O)[C@H](CCCNC(=N)N)NC(=O)[C@H](CCC(=O)O)NC(=O)[C@H](CC(=O)O)NC(=O)[C@H](CC(C)C)NC(=O)[C@H](Cc1ccc(O)cc1)NC(=O)[C@H](CCCCN)NC(=O)[C@H](CO)NC(=O)[C@H](Cc1ccc(O)cc1)NC(=O)[C@H](CC(=O)O)NC(=O)[C@H](CO)NC(=O)[C@@H](NC(=O)[C@H](Cc1ccccc1)NC(=O)[C@@H](NC(=O)CNC(=O)[C@H](CCC(N)=O)NC(=O)C(C)(C)NC(=O)[C@@H](N)Cc1c[nH]cn1)[C@@H](C)O)[C@@H](C)O)C(C)C)[C@@H](C)O)C(=O)N[C@@H](C)C(N)=O (H-H[Aib]QGTFTSDYSKYLDERRAQDFVQWLMNTKRNRNNIA-NH2)		6.14	3.47
CSCC[C@H](NC(=O)[C@H](CC(C)C)NC(=O)[C@H](Cc1c[nH]c2ccccc12)NC(=O)[C@H](CS)NC(=O)[C@@H](NC(=O)[C@H](Cc1ccccc1)NC(=O)[C@H](CCC(=O)O)NC(=O)[C@H](CCCCN)NC(=O)[C@H](C)NC(=O)[C@H](CCCNC(=N)N)NC(=O)[C@H](CCCCN)NC(=O)[C@H](CCC(=O)O)NC(=O)[C@H](CC(=O)O)NC(=O)[C@H](CC(C)C)NC(=O)[C@H](Cc1ccc(O)cc1)NC(=O)[C@H](CCCCN)NC(=O)[C@H](CO)NC(=O)[C@H](Cc1ccc(O)cc1)NC(=O)[C@H](CC(=O)O)NC(=O)[C@H](CO)NC(=O)[C@@H](NC(=O)[C@H](Cc1ccccc1)NC(=O)[C@@H](NC(=O)CNC(=O)[C@H](CCC(N)=O)NCC(C)(C)NC(=O)[C@@H](N)Cc1c[nH]cn1)[C@@H](C)O)[C@@H](C)O)C(C)C)C(=O)N[C@@H](CC(N)=O)C(=O)N[C@H](C(=O)NCC(=O)N1CCC[C@H]1C(=O)N[C@@H](CO)C(=O)N[C@@H](CO)C(=O)NCC(=O)N[C@@H](C)C(=O)N1CCC[C@H]1C(=O)N[C@@H](CO)C(N)=O)[C@@H](C)O (H-[X1]GTFTSDYSKYLDEKRAKEFVCWLMNTGPSSGAPS-NH2)		0.68	0.45
